Measured values taken from ChEMBL document CHEMBL4152250, “Antibacterial and anti-TB tat-peptidomimetics with improved efficacy and half-life” (Eur J Med Chem, 2018).
Values after ≈ are worked out from the molar mass of the structure shown. Active and inactive are the calls of the source. No cut-off for these calls is given here.

Legend:
Staphylococcus aureus [1] = experiment: Antibacterial activity against Staphylococcus aureus NCIM 2010 after 12 hrs by serial dilution method; format: functional, organism-based; details: NCIM 2010, 12 h
Pseudomonas aeruginosa = experiment: Antibacterial activity against Pseudomonas aeruginosa NCIM 2036 after 8 hrs by serial dilution method; format: functional, organism-based; details: NCIM 2036, 8 h
Enterobacter sp. = experiment: Antibacterial activity against Enterobacter sp. NCIM 5392 after 8 hrs by serial dilution method; format: functional, organism-based; details: NCIM 5392, 8 h
[2] = Drug degradation assessed as bovine pancreas chymotrypsin-mediated compound hydrolysis by measuring remaining compound levels at 10 mM measured at 18 hrs by RP-HPLC method; format: ADME, Bos taurus; details: cattle, read-out: Stability
[3] = Drug degradation assessed as pepsin (unknown origin)-mediated compound hydrolysis by measuring remaining compound levels at 24 hrs by RP-HPLC method; format: ADME; details: human, read-out: Stability
[4] = Drug degradation assessed as pepsin (unknown origin)-mediated compound hydrolysis by measuring remaining compound levels at 4 hrs by RP-HPLC method; format: ADME; details: human, read-out: Stability
[5] = Drug degradation assessed as pepsin (unknown origin)-mediated compound hydrolysis by measuring remaining compound levels at 8 hrs by RP-HPLC method; format: ADME; details: human, read-out: Stability
[6] = Drug degradation assessed as bovine pancreas chymotrypsin-mediated compound hydrolysis by measuring remaining compound levels at 10 mM measured at 24 hrs by RP-HPLC method; format: ADME, Bos taurus; details: cattle, read-out: Stability
[7] = Drug degradation assessed as bovine pancreas chymotrypsin-mediated compound hydrolysis by measuring remaining compound levels at 10 mM measured at 0.5 hrs by RP-HPLC method; format: ADME, Bos taurus; details: cattle, read-out: Stability
[8] = Drug degradation assessed as bovine pancreas chymotrypsin-mediated compound hydrolysis by measuring remaining compound levels at 10 mM measured at 4 hrs by RP-HPLC method; format: ADME, Bos taurus; details: cattle, read-out: Stability
[9] = Drug degradation assessed as pepsin (unknown origin)-mediated compound hydrolysis by measuring remaining compound levels at 1 hr by RP-HPLC method; format: ADME; details: human, read-out: Stability
[10] = Drug degradation assessed as bovine pancreas chymotrypsin-mediated compound hydrolysis by measuring remaining compound levels at 10 mM measured at 1 hr by RP-HPLC method; format: ADME, Bos taurus; details: cattle, read-out: Stability
[11] = Drug degradation assessed as pepsin (unknown origin)-mediated compound hydrolysis by measuring remaining compound levels at 18 hrs by RP-HPLC method; format: ADME; details: human, read-out: Stability
[12] = Cytotoxicity against human HeLa cells assessed as cell viability at 1 to 10 uM after 24 hrs by MTT assay relative to control; format: cell-based; details: read-out: Activity
[13] = tested on: Mycobacterium tuberculosis; experiment: Antitubercular activity against dormant stage of Mycobacterium tuberculosis H37Ra ATCC 25177 after 12 days by XRMA; format: functional, organism-based; details: H37Ra ATCC 25177, 288 h
[14] = Drug degradation assessed as bovine pancreas chymotrypsin-mediated compound hydrolysis by measuring compound half life at 10 mM by RP-HPLC method; format: ADME, Bos taurus; details: cattle
[15] = Drug degradation assessed as bovine pancreas chymotrypsin-mediated compound hydrolysis by measuring remaining compound levels at 10 mM measured at 8 hrs by RP-HPLC method; format: ADME, Bos taurus; details: cattle, read-out: Stability
[16] = Drug degradation assessed as pepsin (unknown origin)-mediated compound hydrolysis by measuring remaining compound levels at 2 hrs by RP-HPLC method; format: ADME; details: human, read-out: Stability
[17] = Drug degradation assessed as pepsin (unknown origin)-mediated compound hydrolysis by measuring remaining compound levels at 0.5 hrs by RP-HPLC method; format: ADME; details: human, read-out: Stability
Escherichia coli [18] = experiment: Antibacterial activity against Escherichia coli NCIM 2688 after 8 hrs by serial dilution method; format: functional, organism-based; details: NCIM 2688, 8 h
[19] = tested on: Mycobacterium tuberculosis; experiment: Antitubercular activity against active stage of Mycobacterium tuberculosis H37Ra ATCC 25177 after 8 days by XRMA; format: functional, organism-based; details: H37Ra ATCC 25177, 192 h
[20] = Drug degradation assessed as bovine pancreas chymotrypsin-mediated compound hydrolysis by measuring remaining compound levels at 10 mM measured at 2 hrs by RP-HPLC method; format: ADME, Bos taurus; details: cattle, read-out: Stability
[21] = Drug degradation assessed as bovine pancreas chymotrypsin-mediated compound hydrolysis by measuring remaining compound levels at 10 mM measured at 12 hrs by RP-HPLC method; format: ADME, Bos taurus; details: cattle, read-out: Stability
[22] = Drug degradation assessed as pepsin (unknown origin)-mediated compound hydrolysis by measuring remaining compound levels at 12 hrs by RP-HPLC method; format: ADME; details: human, read-out: Stability
Bacillus subtilis = experiment: Antibacterial activity against Bacillus subtilis NCIM 2079 after 12 hrs by serial dilution method; format: functional, organism-based; details: NCIM 2079, 12 h
[23] = tested on: Staphylococcus epidermidis; experiment: Antibacterial activity against Staphylococcus epidermidis NCIM 5270 after 12 hrs by serial dilution method; format: functional, organism-based; details: NCIM 5270, 12 h
Staphylococcus aureus [24] = experiment: Antibacterial activity against Staphylococcus aureus NCIM 2010 assessed as decrease in bacterial viability at 10 ug/ml after 4 hrs by SYTO9/propidium iodide staining-based fluorescence microscopic method; format: functional, organism-based
Erythrocyte = experiment: Hemolytic activity in human RBC at 1 to 40 uM after 1 hr; format: ADME, cell-based
[25] = tested on: Mycobacterium tuberculosis; experiment: Disruption of cell wall in active stage of Mycobacterium tuberculosis H37Ra ATCC 25177 at MIC after 60 mins by transmission electron microscopic method; format: functional, organism-based
Staphylococcus aureus [26] = experiment: Disruption of cell wall in Staphylococcus aureus NCIM 2010 at MIC after 60 mins by transmission electron microscopic method; format: functional, organism-based
[27] = tested on: Mycobacterium tuberculosis; experiment: Disruption of cell wall in dormant stage of Mycobacterium tuberculosis H37Ra ATCC 25177 at MIC after 60 mins by transmission electron microscopic method; format: functional, organism-based
Escherichia coli [28] = experiment: Disruption of cell wall in Escherichia coli NCIM 2688 at MIC after 60 mins by transmission electron microscopic method; format: functional, organism-based

Row | Compound | IC50 (Staphylococcus aureus [1]) [µM] | MIC (Staphylococcus aureus [1]) [µM] | IC50 (Pseudomonas aeruginosa) [µM] | MIC (Pseudomonas aeruginosa) [µM] | IC50 (Enterobacter sp.) [µM] | MIC (Enterobacter sp.) [µM] | remaining at 18 h, 10000 µM [2] [%] | remaining at 24 h [3] [%] | remaining at 4 h [4] [%] | remaining at 8 h [5] [%] | remaining at 24 h, 10000 µM [6] [%] | remaining at 0.5 h, 10000 µM [7] [%] | remaining at 4 h, 10000 µM [8] [%] | remaining at 1 h [9] [%] | remaining at 1 h, 10000 µM [10] [%] | remaining at 18 h [11] [%] | viability at 24 h, up to 10 µM [12] [%] | IC50 [13] [µM] | half-life at 10000 µM [14] [h] | remaining at 8 h, 10000 µM [15] [%] | also measured
1 | CC(=O)N[C@@H](Cc1ccccc1)C(=O)NCC(=O)N[C@@H](CCCNC(=N)N)C(=O)N[C@@H](CCCCN)C(=O)N[C@@H](CCCCN)C(=O)N[C@@H](CCCNC(=N)N)C(=O)N[C@@H](CCCNC(=N)N)C(=O)N[C@@H](CCC(N)=O)C(=O)N[C@@H](CCCNC(=N)N)C(=O)N[C@@H](CCCNC(=N)N)C(=O)N[C@@H](CCCNC(=N)N)C(N)=O | 0.0113 | 9.91 (≈ 15.7 µg/mL) | 0.0265 | 7.46 (≈ 11.8 µg/mL) | 0.024 | 21.6 (≈ 34.2 µg/mL) | 75.1 | 80.6 | 93 | 90.6 | 15.9 | 86.7 | 82.6 | 94.2 | 86 | 82.1 | ≥ 80 | 40 | 4 | 79.6 | remaining at 2 h [16]: 93.1%; remaining at 0.5 h [17]: 94.6%; IC50 (Escherichia coli [18]): 0.0101 µM; MIC (Escherichia coli [18]): 6.27 µM (≈ 9.94 µg/mL); IC50 [19]: > 60 µM; remaining at 2 h, 10000 µM [20]: 84.6%; remaining at 12 h, 10000 µM [21]: 78.2%; remaining at 12 h [22]: 89%; IC50 (Bacillus subtilis): 0.012 µM; MIC (Bacillus subtilis): 3.34 µM (≈ 5.29 µg/mL); IC50 [23]: 0.0069 µM; MIC [23]: 5.78 µM (≈ 9.16 µg/mL)
2 | CC(=O)N[C@@H](Cc1ccccc1)C(=O)NCC(=O)N[C@H]1C[C@@H](C(=O)N[C@@H](CCCCN)C(=O)N[C@@H](CCCCN)C(=O)N[C@@H](CCCNC(=N)N)C(=O)N[C@H]2C[C@@H](C(=O)N[C@@H](CCC(N)=O)C(=O)N[C@H]3C[C@@H](C(=O)N[C@@H](CCCNC(=N)N)C(=O)N[C@H]4C[C@@H](C(=O)NCCC(N)=O)N(CCCNC(=N)N)C4)N(CCCNC(=N)N)C3)N(CCCNC(=N)N)C2)N(CCCNC(=N)N)C1 | 0.0064 | 1.26 (≈ 2.36 µg/mL) | 0.0042 | 0.61 (≈ 1.14 µg/mL) | 0.0042 | 1.35 (≈ 2.53 µg/mL) | 100 | 100 | 100 | 100 | 100 | 100 | 100 | 100 | 100 | 100 | ≥ 80 | 3.7 | 16 | 100 | Activity (Staphylococcus aureus [24]): Active; Activity (Erythrocyte): Non-Toxic; Activity [25]: Active; Activity (Staphylococcus aureus [26]): Active; MIC [13]: 36.3 µM (≈ 68.1 µg/mL); remaining at 2 h [16]: 100%; remaining at 0.5 h [17]: 100%; IC50 (Escherichia coli [18]): 0.0053 µM; MIC (Escherichia coli [18]): 1.12 µM (≈ 2.1 µg/mL); IC50 [19]: 6.2 µM; MIC [19]: 43.9 µM (≈ 82.4 µg/mL); remaining at 2 h, 10000 µM [20]: 100%; remaining at 12 h, 10000 µM [21]: 100%; remaining at 12 h [22]: 100%; IC50 (Bacillus subtilis): 0.0037 µM; MIC (Bacillus subtilis): 0.71 µM (≈ 1.33 µg/mL); Activity [27]: Active; IC50 [23]: 0.0042 µM; MIC [23]: 1.12 µM (≈ 2.1 µg/mL); Activity (Escherichia coli [28]): Active
